Legend:
Conditions in all cases: 37° C., 48 hours (examined up to 72 hours); well color change to purple or red
[1] = test system: S. pneumoniae (CX-2); type: cell-based, Streptococcus pneumoniae
Protocol: (§1) To analyze substance utilization by the isolated strains (Streptococcus pneumoniae, Streptococcus infantis, and Streptococcus mitis), tests were conducted in the following manner. BioLOG GP2 and API 50 were used in determining the substance utilization, and testing was performed using testing methods provided by Omnilog and Biomeriuse. The culturing temperature and media suitable to corresponding strains were selected, and 5 among cluster colonies incubated for 48 hours were taken and suspended in reagents before use. The inoculation amount was 150 μl. As the suspension, components of kits provided by various manufacturers were used. When the strains are yet to be inoculated, the suspension is in a transparent liquid phase. Inoculated plates and strips were incubated at 37° C. for 48 hours, and then the incubation of up to 72 hours was examined. Wells were in a transparent liquid phase at the time of inoculating, but the colors of the wells changed to purple or red, and the color-changed wells were determined to be positive.

[2] = test system: S. infantis (CX-4); experiment: Substance utilization by isolated strains (BioLOG GP2, API 50); type: cell-based, Streptococcus infantis
Protocol: as §1

[3] = test system: S. mitis (CX-8); experiment: as above; type: cell-based, Streptococcus mitis
Protocol: as §1

Compound | substance utilization, S. pneumoniae (CX-2) [1] | substance utilization, S. infantis (CX-4) [2] | substance utilization, S. mitis (CX-8) [3]
[Cl-].[Na+] [1% NaCl, NaCl] | + | + | +
CC(O)C(=O)[O-].[Na+] (stereo not shown) [1% Sodium Lactate, Sodium Lactate] | + | + | +
OC[C@H]1O[C@@H](O[C@H]2[C@H](O)[C@@H](O)[C@H](O)O[C@@H]2CO)[C@H](O)[C@@H](O)[C@@H]1O [D-Cellobiose] | + | + | +
O=P(O)(O)OC[C@H]1OC(O)(CO)[C@@H](O)[C@@H]1O (stereo partly drawn) [D-Fructose-6-Po4] |  |  | +
OC[C@H]1O[C@H](OCC2O[C@@H](O)[C@H](O)[C@@H](O)[C@@H]2O)[C@H](O)[C@@H](O)[C@H]1O (stereo partly drawn) [D-Melibiose] | + |  | 
OC[C@H]1O[C@H](OC[C@H]2O[C@H](O[C@]3(CO)O[C@H](CO)[C@@H](O)[C@@H]3O)[C@H](O)[C@@H](O)[C@@H]2O)[C@H](O)[C@@H](O)[C@H]1O [D-Raffinose] | + |  | 
OC[C@H]1O[C@H](O[C@H]2[C@H](O)[C@@H](O)[C@H](O)O[C@@H]2CO)[C@H](O)[C@@H](O)[C@@H]1O [D-maltose] | + | + | +
O=C1O[C@H]([C@@H](O)CO)[C@@H](O)[C@@H]1O [L-Galactonic Acid Lactone] |  |  | +
[Cl-].[Li+] [Lithium Chloride] |  |  | +
O=[Te]([O-])[O-].[K+].[K+] [Potassium Tellurite] | + | + | +
CO[C@H]1/C=C/O[C@@]2(C)Oc3c(C)c([O-])c4c(O)c(cc(O)c4c3C2=O)NC(=O)/C(C)=C\C=C\[C@H](C)[C@H](O)[C@@H](C)[C@@H](O)[C@@H](C)[C@H](OC(C)=O)[C@@H]1C.[Na+] [Rifamycin SV] |  | + | +
OC[C@H]1O[C@H](OC[C@H]2O[C@H](OC[C@H]3O[C@H](O[C@]4(CO)O[C@H](CO)[C@@H](O)[C@@H]4O)[C@H](O)[C@@H](O)[C@@H]3O)[C@H](O)[C@@H](O)[C@H]2O)[C@H](O)[C@@H](O)[C@H]1O [Stachyose] | + | + | +
COc1cc(-c2ccc(-n3nc(-c4ccccc4)n[n+]3-c3ccccc3)c(OC)c2)ccc1-n1nc(-c2ccccc2)n[n+]1-c1ccccc1.[Cl-].[Cl-] [Tetrazolium Blue] |  | + | +
D-Salicin |  |  | +
D-Turanose | + |  | 
Dextrin | + | + | +
Pectin | + | + | +
Tween 40 | + | + | 

— patent publication US11752091B2, “Composition for strengthening skin barrier, moisturizing skin or anti-aging” (COSMAX, INC., priority 2020, dated 2023)
